The target of this experiment is T1, Human PKK (Homo sapiens, UniProt P03952).
T1 construct: purchased Enzyme Research Laboratories
T1 sequence (P03952 20-390 limits assumed): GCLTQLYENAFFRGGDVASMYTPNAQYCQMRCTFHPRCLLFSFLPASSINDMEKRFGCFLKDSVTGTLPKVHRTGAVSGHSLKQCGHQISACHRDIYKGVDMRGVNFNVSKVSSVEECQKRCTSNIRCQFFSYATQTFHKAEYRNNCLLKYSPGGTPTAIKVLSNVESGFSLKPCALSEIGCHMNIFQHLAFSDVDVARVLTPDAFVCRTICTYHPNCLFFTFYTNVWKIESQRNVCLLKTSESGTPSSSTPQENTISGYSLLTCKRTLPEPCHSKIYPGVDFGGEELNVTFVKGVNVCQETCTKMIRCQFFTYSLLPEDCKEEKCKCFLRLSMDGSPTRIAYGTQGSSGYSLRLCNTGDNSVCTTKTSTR
T1 sequence (P03952 391-638 limits assumed): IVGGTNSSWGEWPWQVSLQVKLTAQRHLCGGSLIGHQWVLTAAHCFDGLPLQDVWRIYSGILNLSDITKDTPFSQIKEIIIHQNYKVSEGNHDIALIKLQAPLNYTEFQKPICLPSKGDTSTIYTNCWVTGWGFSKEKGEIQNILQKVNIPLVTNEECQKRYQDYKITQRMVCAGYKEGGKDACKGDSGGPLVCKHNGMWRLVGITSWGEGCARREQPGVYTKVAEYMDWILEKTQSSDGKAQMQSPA
The experiment can be described thus: Inhibition of PKK using an endpoint assay (human PKK). The settings on record: fluorogenic substrate H-Pro-Phe-Arg-AMC, 1 h room temperature, method names human or rat PKK, table does not say which. It is filed as biochemical. As for the experimental part: The ability of compounds of formula (I) to inhibit plasma kallikrein (PKK), Factor XIIa (FXIIa), Factor XIa (FXIa), Factor Xa (FXa), Factor IIa (alpha-thrombin; FIIa), plasmin, trypsin, tissue kallikrein 1 (TK1), Factor VIIa (FVIIa), or FVIIa complexed with Tissue Factor, phospholipids and CaCl2 (FVIIa/TF/PL/CaCl2) is determined using the following biochemical assays in assay buffer (100 mM Tris, 150 mM NaCL, adjusted to a pH of 7.8 with HCl, and containing 0.1% (w/v) BSA and 0.05% (v/v) Tween20) in the presence of 1% (v/v) DMSO:
Subsequently, PPACK II (Calbiochem) is added as a stop solution to achieve a final concentration of 1 μM and fluorescence is measured using an Envision Reader (PerkinElmer) with the wavelength excitation setting of 355 nm and the wavelength emission setting of 460 nm.
As to `Cc1cc(N2CC3CC3C2)c(C#N)cc1Cn1cc(C(=O)N[C@@H]2CCc3c2ncn3C)cn1` (stereo partly drawn) [Example 200, 1-[(4-{3-azabicyclo[3.1.0]hexan-3-yl}-5-cyano-2-methylphenyl)methyl]-N-[(4R)-1-methyl-1H,4H,5H,6H-cyclopenta[d]imidazol-4-yl]-1H-pyrazole-4-carboxamide], the IC50 worked out at 0.0086 µM.

`Cc1nc(N2CC3CC(C2)O3)ncc1Cn1cc(C(=O)N[C@@H]2CCc3c2ncn3C)cn1` [Example 231, N-[(4R)-1-Methyl-1H,4H,5H,6H-cyclopenta[d]imidazol-4-yl]-1-[(4-methyl-2-{6-oxa-3-azabicyclo[3.1.1]heptan-3-yl}pyrimidin-5-yl)methyl]-1H-pyrazole-4-carboxamide]: the IC50 came out at 0.223 µM. The same measure for `Cc1cc(Cn2cc(C(=O)N[C@@H]3CCc4c3ncn4C)cn2)c(C)nc1N1CC2CC2C1` (stereo partly drawn) [Example 130, 1-[(6-{3-Azabicyclo[3.1.0]hexan-3-yl}-2,5-dimethylpyridin-3-yl)methyl]-N-[(4R)-1-methyl-1H,4H,5H,6H-cyclopenta[d]imidazol-4-yl]-1H-pyrazole-4-carboxamide]: 0.02 µM; for `Cc1cc(Cn2cnc(C(=O)N[C@@H]3CCc4c3ncn4C)c2)c(C)nc1N1CC2CC2C1` (stereo partly drawn) [Example 129, 1-[(6-{3-Azabicyclo[3.1.0]hexan-3-yl}-2,5-dimethylpyridin-3-yl)methyl]-N-[(4R)-1-methyl-1H,4H,5H,6H-cyclopenta[d]imidazol-4-yl]-1H-imidazole-4-carboxamide]: 0.0237 µM.

Turning to `Cc1nc(N2CC3CCC3C2)ncc1Cn1cc(C(=O)N[C@@H]2CCc3c2ncn3C)cn1` (stereo partly drawn) [Example 238, 1-[(2-{3-Azabicyclo[3.2.0]heptan-3-yl}-4-methylpyrimidin-5-yl)methyl]-N-[(4R)-1-methyl-1H,4H,5H,6H-cyclopenta[d]imidazol-4-yl]-1H-pyrazole-4-carboxamide], the IC50 was 0.123 µM. The same measure for `CCc1nc(N2CC3CC3C2)ccc1Cc1ccc(C(=O)N[C@@H]2CCc3c2ncn3C)s1` (stereo partly drawn) [Example 183, 5-[(6-{3-Azabicyclo[3.1.0]hexan-3-yl}-2-ethylpyridin-3-yl)methyl]-N-[(4R)-1-methyl-1H,4H,5H,6H-cyclopenta[d]imidazol-4-yl]thiophene-2-carboxamide]: 0.0194 µM. `Cn1cnc2c1CC[C@H]2NC(=O)c1cnc(Cc2cc(F)c(N3CC4CC4C3)c(F)c2)[nH]1` (stereo partly drawn) [Example 192, 2-[(4-{3-azabicyclo[3.1.0]hexan-3-yl}-3,5-difluorophenyl)methyl]-N-[(4R)-1-methyl-1H,4H,5H,6H-cyclopenta[d]imidazol-4-yl]-1H-imidazole-4-carboxamide] gave an IC50 of 1.89 µM.

Turning to `Cc1nc(N2CCCC3(CC3)C2)ncc1Cn1cc(C(=O)N[C@@H]2CCc3c2ncn3C)cn1` [Example 232, 1-[(2-{5-Azaspiro[2.5]octan-5-yl}-4-methylpyrimidin-5-yl)methyl]-N-[(4R)-1-methyl-1H,4H,5H,6H-cyclopenta[d]imidazol-4-yl]-1H-pyrazole-4-carboxamide], the midpoint of inhibition, the IC50, lay at 0.512 µM. In turn, `Cn1cnc2c1CC[C@H]2NC(=O)c1cnn(Cc2ccc(N3CC4CC4C3)nn2)c1` (stereo partly drawn) [Example 60, 1-[(6-{3-Azabicyclo[3.1.0]hexan-3-yl}pyridazin-3-yl)methyl]-N-[(4R)-1-methyl-1H,4H,5H,6H-cyclopenta[d]imidazol-4-yl]-1H-pyrazole-4-carboxamide] had an IC50 of 0.0188 µM. On to `Cc1nc(N2CCC3(CCC3)C2)ncc1Cn1cc(C(=O)N[C@@H]2CCc3c2ncn3C)cn1` [Example 240, 1-[(2-{6-Azaspiro[3.4]octan-6-yl}-4-methylpyrimidin-5-yl)methyl]-N-[(4R)-1-methyl-1H,4H,5H,6H-cyclopenta[d]imidazol-4-yl]-1H-pyrazole-4-carboxamide], for which the IC50 amounted to 0.052 µM.

Turning to `Cn1cnc2c1CC[C@H]2NC(=O)c1cn(Cc2ccc(N3CC4C(C3)C4(F)F)cn2)nn1` (stereo partly drawn) [Example 138, 1-[(5-{6,6-Difluoro-3-azabicyclo[3.1.0]hexan-3-yl}pyridin-2-yl)methyl]-N-[(4R)-1-methyl-1H,4H,5H,6H-cyclopenta[d]imidazol-4-yl]-1H-1,2,3-triazole-4-carboxamide], the IC50 stood at 0.0022 µM. In turn, `Cc1nc(N2C[C@@H]3[C@@H](O)[C@@H]3C2)ncc1Cn1cc(C(=O)N[C@@H]2CCc3c2ncn3C)cn1` [Example 236, 1-({2-[(1R,5S,6S)-6-Hydroxy-3-azabicyclo[3.1.0]hexan-3-yl]-4-methylpyrimidin-5-yl}methyl)-N-[(4R)-1-methyl-1H,4H,5H,6H-cyclopenta[d]imidazol-4-yl]-1H-pyrazole-4-carboxamide] yielded an IC50 of 0.222 µM. For `Cn1cnc2c1CC[C@H]2NC(=O)c1cnn(Cc2cc(F)c(N3CC4CC4C3)c(C#N)c2)c1` (stereo partly drawn) [Example 195, 1-[(4-{3-azabicyclo[3.1.0]hexan-3-yl}-3-cyano-5-fluorophenyl)methyl]-N-[(4R)-1-methyl-1H,4H,5H,6H-cyclopenta[d]imidazol-4-yl]-1H-pyrazole-4-carboxamide] the value was 0.0203 µM. `CCc1nc(N2CC3(CC3)C2)ccc1Cc1cc(C(=O)N[C@@H]2CCc3c2ncn3C)on1` [Example 156, 3-[(6-{5-Azaspiro[2.3]hexan-5-yl}-2-ethylpyridin-3-yl)methyl]-N-[(4R)-1-methyl-1H,4H,5H,6H-cyclopenta[d]imidazol-4-yl]-1,2-oxazole-5-carboxamidef] returned an IC50 of 0.0008 µM.

For the compound `Cn1cnc2c1CC[C@H]2NC(=O)c1cnn(Cc2ccc(N3CC4CC4C3)nc2OC(F)(F)F)c1` (stereo partly drawn) [Example 58, 1-[(6-{3-Azabicyclo[3.1.0]hexan-3-yl}-2-(trifluoromethoxy)-pyridin-3-yl)methyl]-N-[(4R)-1-methyl-1H,4H,5H,6H-cyclopenta[d]imidazol-4-yl]-1H-pyrazole-4-carboxamide], half-maximal inhibition (IC50) was put at 0.0025 µM. For `Cc1nc(N2CC3CCCC3C2)ncc1Cn1cc(C(=O)N[C@@H]2CCc3c2ncn3C)cn1` (stereo partly drawn) [Example 239, N-[(4R)-1-Methyl-1H,4H,5H,6H-cyclopenta[d]imidazol-4-yl]-1-[(4-methyl-2-{octahydrocyclopenta[c]pyrrol-2-yl}pyrimidin-5-yl)methyl]-1H-pyrazole-4-carboxamide] the value was 0.123 µM; for `Cn1cnc2c1CC[C@H]2NC(=O)c1cn(Cc2ccc(N3CC4CC4C3)nc2OC(F)(F)F)cn1` (stereo partly drawn) [Example 38, 1-[(6-{3-Azabicyclo[3.1.0]hexan-3-yl}-2-(trifluoromethoxy)-pyridin-3-yl)methyl]-N-[(4R)-1-methyl-1H,4H,5H,6H-cyclopenta[d]imidazol-4-yl]-1H-imidazole-4-carboxamide], 0.0034 µM; for `Cc1nc(N2CC3(CC3)C2)ncc1Cn1cnc(C(=O)N[C@@H]2CCc3c2ncn3C)c1` [Example 172, 1-[(2-{5-Azaspiro[2.3]hexan-5-yl}-4-methylpyrimidin-5-yl)methyl]-N-[(4R)-1-methyl-1H,4H,5H,6H-cyclopenta[d]imidazol-4-yl]-1H-imidazole-4-carboxamide], 0.0081 µM.

Regarding `Cn1cnc2c1CC[C@H]2NC(=O)c1cc(Cc2ccc(N3CC4(CC4)C3)nc2Cl)no1` [Example 157, 3-[(6-{5-Azaspiro[2.3]hexan-5-yl}-2-chloropyridin-3-yl)methyl]-N-[(4R)-1-methyl-1H,4H,5H,6H-cyclopenta[d]imidazol-4-yl]-1,2-oxazole-5-carboxamide], half-maximal inhibition (IC50) was put at 0.0012 µM.

The IC50 is the midpoint of a concentration-inhibition curve.

These data come from patent publication US12479827B2, “Heteroaromatic carboxamide derivatives as plasma kallikrein inhibitors” (Boehringer Ingelheim International GmbH, priority 2020, dated 2025).
